In general, Ki refers to the equilibrium dissociation constant of an inhibitor or competing ligand from its target. A word on the inhibition: it is the drop in the measured response relative to a control, in per cent.

Values joined by “and” are separate entries in the source; they are usually repeats but may differ in a detail not shown here. Equal values may be shown once.

In assay [1] the target is T1, Adenosine receptor A2a (Rattus norvegicus, UniProt P30543).
Description: (§1) Displacement [3H]-CGS-21,680 from Adenosine A2A receptor in rat striatal membrane.
In a further assay the target is T2, Adenosine receptor A1 (Rattus norvegicus, UniProt P25099).
T2 sequence (P25099 whole entry): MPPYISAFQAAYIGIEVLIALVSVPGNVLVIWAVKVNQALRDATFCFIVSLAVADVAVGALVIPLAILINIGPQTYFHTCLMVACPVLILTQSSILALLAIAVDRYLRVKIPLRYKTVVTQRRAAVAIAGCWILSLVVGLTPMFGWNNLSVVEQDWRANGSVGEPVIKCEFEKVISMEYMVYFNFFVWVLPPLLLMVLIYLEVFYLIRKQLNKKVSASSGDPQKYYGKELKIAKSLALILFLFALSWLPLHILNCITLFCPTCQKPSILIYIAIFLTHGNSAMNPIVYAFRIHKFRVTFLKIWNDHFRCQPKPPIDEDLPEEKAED
As to the kind of experiment: Tested for the displacement [3H]PIA from Adenosine A1 receptor in rat brain membrane. The assay is classed as cell membranes.

For assay [2], the target named is Adenosine receptors; A1 & A2a (Rattus norvegicus) (UniProt P25099+P30543). The assay can be described thus: Selectivity for adenosine A2a and A1 receptors. Type of assay: protein assay.
The target of assay [3] is T3, Adenosine receptor A3 (Rattus norvegicus, UniProt P28647).
T3 sequence (P28647 whole entry): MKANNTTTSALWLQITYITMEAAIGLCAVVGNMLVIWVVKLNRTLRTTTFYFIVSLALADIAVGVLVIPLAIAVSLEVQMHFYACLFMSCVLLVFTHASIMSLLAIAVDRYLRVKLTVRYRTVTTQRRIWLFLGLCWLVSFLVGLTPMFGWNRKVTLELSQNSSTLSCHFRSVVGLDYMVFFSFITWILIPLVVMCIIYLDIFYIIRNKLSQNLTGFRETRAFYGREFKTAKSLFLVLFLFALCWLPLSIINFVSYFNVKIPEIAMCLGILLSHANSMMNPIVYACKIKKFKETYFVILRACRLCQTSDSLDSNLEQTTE
The assay can be described thus: Displacement of [125I]AB-MECA from rat Adenosine A3 receptor expressed in CHO cell membrane. The assay is classed as cell membranes.

Assay [4] has as its target T4, Adenosine receptor A3 (Homo sapiens, UniProt P0DMS8).
T4 sequence (P0DMS8 whole entry): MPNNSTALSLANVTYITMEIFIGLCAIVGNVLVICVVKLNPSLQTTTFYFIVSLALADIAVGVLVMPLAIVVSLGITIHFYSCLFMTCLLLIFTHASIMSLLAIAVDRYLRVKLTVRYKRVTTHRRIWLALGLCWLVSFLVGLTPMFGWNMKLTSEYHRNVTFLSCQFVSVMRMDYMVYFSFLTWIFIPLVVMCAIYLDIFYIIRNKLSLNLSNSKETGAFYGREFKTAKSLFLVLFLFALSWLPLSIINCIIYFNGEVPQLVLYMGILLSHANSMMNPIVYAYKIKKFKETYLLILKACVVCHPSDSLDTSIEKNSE
The assay can be described thus: Displacement of [125I]AB-MECA from human Adenosine A3 receptor expressed in HEK293 cell membrane. The assay is classed as cell membranes. (Displacement assays read how much labelled ligand stays bound in the presence of the test substance.)

Assay [5] deals with Adenosine A1 receptor (Rattus norvegicus) (UniProt P25099). As to the kind of experiment: Selectivity for rat adenosine A3 and rat adenosine A1 receptors.
The target of assay [6] is Adenosine receptor A2a (Rattus norvegicus) (UniProt P30543). The assay can be described thus: Displacement [3H]CGS-21680 from Adenosine A2A receptor in rat striatal membrane. The assay is classed as cell membranes. The arrangement: concentration or dose not given beside the values. Particulars: Striatum, concentration not given here.
In assay [7] the target is T5, Adenosine receptor A1 (Rattus norvegicus) (UniProt P25099).
T5 sequence (whole entry): T2 sequence (P25099 whole entry)
The assay can be described thus: Displacement of [3H]PIA from Adenosine A1 receptor of rat brain membrane at 10e-4 M.

Assay [8] concerns the target T6, Adenosine receptor A3 (Homo sapiens) (UniProt P0DMS8).
T6 sequence (whole entry): T4 sequence (P0DMS8 whole entry)
As to the kind of experiment: Displacement of [125I]AB-MECA from human Adenosine A3 receptor expressed in HEK293 cell membrane at 10e-4 M. The assay is classed as cell membranes.

Assay [9] addresses T1, Adenosine receptor A2a. The source holds these as a separate data set.
Description: as §1

Chain of Adenosine receptors; A1 & A2a (Rattus norvegicus) (P30543 whole entry, looked up, one chain of several): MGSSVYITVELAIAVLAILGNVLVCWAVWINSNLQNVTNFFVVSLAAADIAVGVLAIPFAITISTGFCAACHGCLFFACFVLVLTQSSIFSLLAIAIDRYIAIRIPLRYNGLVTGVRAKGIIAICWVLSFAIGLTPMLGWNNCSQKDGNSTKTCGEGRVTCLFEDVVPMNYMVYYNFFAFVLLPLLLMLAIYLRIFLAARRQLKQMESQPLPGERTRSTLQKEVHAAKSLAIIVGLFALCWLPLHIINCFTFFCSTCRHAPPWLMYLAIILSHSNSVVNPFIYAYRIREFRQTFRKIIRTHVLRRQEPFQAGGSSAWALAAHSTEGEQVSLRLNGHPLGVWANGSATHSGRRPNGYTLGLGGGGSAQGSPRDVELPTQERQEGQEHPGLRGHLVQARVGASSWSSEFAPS
Chain of Adenosine receptor A2a (Rattus norvegicus) (P30543 whole entry): as the sequence (P30543 whole entry, looked up, one chain of several) above
T1 sequence (P30543 whole entry): as the sequence (P30543 whole entry, looked up, one chain of several) above

`CCOC(=O)c1sc(SCC)c2c1CC(C)(C)CC2=O`: at Adenosine receptor A2a [1], the Ki is 23.9 µM.
On to `Nc1nc2ccccc2n2cc(-c3ccccc3)nc12`, for which the results for the Ki on Adenosine receptor A1 and at Adenosine receptor A2a [1] were 0.034 µM and 0.29 µM, respectively.
With `CCCCSc1sc(C(=O)OCC)c2c1C(=O)CCC2`, the figures for the Ki on Adenosine receptor A1 and on Adenosine receptor A2a [1] were 1.42 µM and 15.6 µM, respectively. The Selectivity in [2] was 11.
As to `CCOC(=O)c1sc(SC)c2c1CCCC2O` (stereo not drawn), the Ki at Adenosine receptor A1 came to 18.3 µM; on Adenosine receptor A3 [3], 15.4 µM; at Adenosine receptor A3 [4], 35.8 µM; at Adenosine receptor A2a [1] it was 33.5 µM. Further, the values for the Selectivity in assay [2] and in assay [5] were 1.8 and 0.84, respectively.
In the case of `CCOC(=O)c1sc(SC)c2c1CCCC2=O`, the Ki at Adenosine receptor A1 amounted to 1.93 µM; at Adenosine receptor A3 [3], 15.2 µM; on Adenosine receptor A2a [1] it was 3.66 µM. For the same molecule, the Selectivity in [2] was 1.9; in assay [5], 7.88.
As for `CCOC(=O)CSc1sc(C(=O)OCC)c2c1C(=O)CCC2`, the Ki was 2.22 µM at Adenosine receptor A1, 10.2 µM on Adenosine receptor A3 [3] and 25.6 µM on Adenosine receptor A2a [1]. Besides, the figures for the Selectivity in [2] and in [5] were 11.5 and 4.59, respectively.
In turn, `CCOC(=O)c1sc(SC)c2c1CCC/C2=N/OC` showed an inhibitory constant (Ki) at Adenosine receptor A1 of 69.8 µM. In assay [6], this molecule registered an inhibition of 22%. Besides, the Selectivity in [2] is above 1.4.
`O=c1c(-c2ccc(O)cc2)coc2cc(O)cc(O)c12` [GENISTEIN] registered a Ki at Adenosine receptor A2a [1] of 36 µM.
Take `CCOC(=O)c1sc(S(C)(=O)=O)c2c1CC(C)(C)CC2=O`: the Ki stood at 32.7 µM on Adenosine receptor A1 and 51.8 µM on Adenosine receptor A3 [3]. For the same molecule, the inhibition in assay [6] is 13%. Besides, the Selectivity was above 3.1 in assay [2] and 1.58 in assay [5].
For the molecule `CCOC(=O)c1sc(SC(C)CC)c2c1CC(C)(C)CC2=O` (stereo not drawn), the values for the Ki on Adenosine receptor A1 and at Adenosine receptor A2a [1] were 3.64 µM and 106 µM, respectively. This molecule also registered a Selectivity in assay [2] of 29.1.
In turn, `Nc1nc2ccc(Cl)cc2n2c(-c3ccccc3)nnc12` registered a Ki at Adenosine receptor A2a [1] of 0.021 µM.
In the case of `CSc1scc2c1C(=O)CCC2`, the inhibition was 28% in [7] and below 10% in assay [6]. The same molecule showed a Selectivity in assay [2] above 1.
In turn, `CSc1sc(C(=O)NN)c2c1C(O)CCC2` (stereo not drawn) gave a Ki on Adenosine receptor A1 of 71.2 µM. The molecule also had an inhibition in assay [6] of 28.9%. Besides, in [2], the Selectivity was above 1.4.
Consider `C=CCSc1sc(C(=O)OCC)c2c1C(=O)CCC2`, for which the values for the Ki at Adenosine receptor A1 and at Adenosine receptor A2a [1] were 1.06 µM and 6.04 µM, respectively. This molecule showed a Selectivity in assay [2] of 5.7.
Turning to `COc1cc(-c2oc3c(OC)cc(CCCO)cc3c2C=O)ccc1O`, on Adenosine receptor A1, the Ki came out at 0.017 µM.
As for `Nc1nc2ccc(Cl)cc2c2nc(-c3ccco3)nn12` [CGS-15943], the Ki at Adenosine receptor A2a [1] is 3.3 µM.
`O=C(O)c1sc(SCc2ccccc2)c2c1CCCC2=O`: the Ki is 50 µM on Adenosine receptor A1, 42 µM at Adenosine receptor A3 [3], 117 µM on Adenosine receptor A3 [4] and 15.2 µM on Adenosine receptor A2a [1]. The Selectivity in assay [2] turned out to be 0.3.
For the molecule `CCOC(=O)c1sc(SC(C)C)c2c1CCCC2=O`, the figures for the inhibitory constant (Ki) on Adenosine receptor A1 and on Adenosine receptor A2a [1] were 1.79 µM and 4.63 µM, respectively. The Selectivity in assay [2] was found to be 2.6.
Turning to `CCOC(=O)c1sc(SCc2ccccc2)c2c1CCCC2=O`, the Ki at Adenosine receptor A1 was 0.72 µM and 0.715 µM; on Adenosine receptor A2a [1], 1.36 µM; at Adenosine receptor A2a [9] it was 1.36 µM. The inhibition in assay [8] was 24%. Besides, in assay [2], the Selectivity came out at 1.9.
With `CCOC(=O)c1sc(NN)c2c1CCCC2=O`, the Ki on Adenosine receptor A1 is 17.5 µM; at Adenosine receptor A2a [1] it was 36.1 µM. In [2], the Selectivity was found to be 2.1.
Consider `CSc1sc(C(=O)NN)c2c1C=CCC2`, for which the Ki at Adenosine receptor A1 came out at 51.6 µM; on Adenosine receptor A3 [3], 13.1 µM. In addition, the inhibition in assay [6] was below 10%. Also, the figures for the Selectivity in assay [2] and in assay [5] were above 1.9 and 0.25, respectively.
For `CCOC(=O)c1sc(SCc2ccccc2)c2c1CC(C)(C)CC2=O`, the Ki on Adenosine receptor A1 was 0.567 µM. Also, in [6], the inhibition was 34%. This molecule displayed a Selectivity in [2] above 17.6.
With `CCCSc1sc(C(=O)OCC)c2c1C(=O)CCC2`, the Ki at Adenosine receptor A1 stood at 1.26 µM; on Adenosine receptor A2a [1], 4.69 µM. Further, the Selectivity in assay [2] worked out at 3.7.
